Consider 27 compounds from ChEMBL document CHEMBL4270514, “Design, synthesis and biological evaluation of novel xanthine oxidase inhibitors bearing a 2-arylbenzo[b]furan scaffold” (Eur J Med Chem, 2018).

Activity calls are given as the source filed them. The calls are words filed in the database; no cut-off is given here. A value given as a limit tells only on which side of the number the result lay.

Data set [1] concerns the target T1, Xanthine dehydrogenase/oxidase (Bos taurus, UniProt P80457). In words: Inhibition of bovine xanthine oxidase using xanthine as substrate preincubated for 3 mins followed by substrate addition and measured for every 15 secs for 7 mins by spectrophotometric analysis.
Data set [2] in a line: Antioxidant activity assessed as DPPH radical scavenging activity after 30 mins by spectrophotometric analysis. The data set is classed as functional. In general terms: The DPPH test is a chemical assay of radical scavenging.
The subject of data set [3] is RAW264.7. In words: Inhibition of LPS-induced ROS generation in mouse RAW264.7 cells after 24 hrs by H2DCFH staining-based fluorescence assay. The data set is classed as functional, cell-based.
A short description of data set [4]: Cytotoxicity against mouse RAW264.7 cells assessed as effect on cell viability at 1 to 10 uM after 24 hrs by MTT assay relative to control. The data set is classed as cell-based. Conditions: read-out: Activity. (Formazan colour is commonly taken as a measure of viable cells.)
In data set [5] the test system is RAW264.7. In words: Inhibition of LPS-induced ROS generation in mouse RAW264.7 cells at 1 to 10 uM after 24 hrs by H2DCFH staining-based fluorescence assay. The format is functional, cell-based.
Data set [6] has as its system RAW264.7. In words: Inhibition of LPS-induced ROS generation in mouse RAW264.7 cells at 10 uM after 24 hrs by H2DCFH staining-based fluorescence assay. The format is functional, cell-based.
Data set [7] has as its system Mus musculus. In words: Hypouricemic effect in ICR mouse model of potassium oxonate-induced acute hyperuricemia assessed as reduction in serum uric acid levels at 10 mg/kg, iv measured at 1 hr post dose. The format is functional, organism-based.
For data set [8], the system named is Mus musculus. In words: Hypouricemic effect in iv dosed ICR mouse model of potassium oxonate-induced acute hyperuricemia assessed as reduction in serum uric acids level measured after 1 hr post dose. The format is functional, organism-based.
Data set [9] has as its target T1, Xanthine dehydrogenase/oxidase. In words: Competitive inhibition of bovine xanthine oxidase using xanthine as substrate preincubated for 3 mins followed by substrate addition by Lineweaver-Burk plot analysis.
For data set [10] the target is unchanged. Kind of data set: Uncompetitive inhibition of bovine xanthine oxidase using xanthine as substrate preincubated for 3 mins followed by substrate addition by Lineweaver-Burk plot analysis.

T1 sequence (P80457 whole entry): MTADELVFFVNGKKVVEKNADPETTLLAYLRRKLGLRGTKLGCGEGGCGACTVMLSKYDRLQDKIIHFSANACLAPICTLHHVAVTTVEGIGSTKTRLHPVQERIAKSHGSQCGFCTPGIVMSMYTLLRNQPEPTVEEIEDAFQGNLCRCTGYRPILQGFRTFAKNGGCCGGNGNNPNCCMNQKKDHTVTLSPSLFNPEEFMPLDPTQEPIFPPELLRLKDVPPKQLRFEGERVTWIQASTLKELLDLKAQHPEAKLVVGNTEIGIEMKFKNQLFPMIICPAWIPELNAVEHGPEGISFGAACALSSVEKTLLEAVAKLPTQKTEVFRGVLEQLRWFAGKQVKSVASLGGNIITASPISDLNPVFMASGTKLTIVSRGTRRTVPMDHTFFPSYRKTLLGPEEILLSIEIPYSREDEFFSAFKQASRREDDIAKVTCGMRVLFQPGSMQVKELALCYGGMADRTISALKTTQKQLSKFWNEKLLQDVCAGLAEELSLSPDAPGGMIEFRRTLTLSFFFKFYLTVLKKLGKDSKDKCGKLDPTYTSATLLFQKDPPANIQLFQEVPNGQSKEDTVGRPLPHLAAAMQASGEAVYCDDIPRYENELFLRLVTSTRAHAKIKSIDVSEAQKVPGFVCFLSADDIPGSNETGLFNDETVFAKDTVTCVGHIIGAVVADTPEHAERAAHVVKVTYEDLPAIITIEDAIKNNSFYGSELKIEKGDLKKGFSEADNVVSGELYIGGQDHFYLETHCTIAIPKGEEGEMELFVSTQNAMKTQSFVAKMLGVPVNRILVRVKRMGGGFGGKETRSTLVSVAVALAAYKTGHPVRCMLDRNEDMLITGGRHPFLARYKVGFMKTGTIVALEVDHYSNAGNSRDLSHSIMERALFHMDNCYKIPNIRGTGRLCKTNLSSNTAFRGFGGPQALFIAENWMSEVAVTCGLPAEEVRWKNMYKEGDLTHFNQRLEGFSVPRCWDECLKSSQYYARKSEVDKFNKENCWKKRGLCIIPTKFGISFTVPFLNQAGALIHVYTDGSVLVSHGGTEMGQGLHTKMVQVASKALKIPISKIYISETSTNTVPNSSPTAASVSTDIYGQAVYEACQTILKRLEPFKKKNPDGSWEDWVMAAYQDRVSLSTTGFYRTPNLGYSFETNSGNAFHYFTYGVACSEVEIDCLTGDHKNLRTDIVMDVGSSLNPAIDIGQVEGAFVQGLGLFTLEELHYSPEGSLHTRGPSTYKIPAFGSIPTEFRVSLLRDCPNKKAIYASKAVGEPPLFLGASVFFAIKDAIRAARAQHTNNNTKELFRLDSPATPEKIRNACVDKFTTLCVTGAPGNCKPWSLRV

As usually defined, the IC50 is the midpoint of a concentration-inhibition curve. `CC(C)(C)NC(=O)/C=C/c1ccc(O)c2oc(-c3ccc(O)c(O)c3)cc12`: the IC50 in data set [1] was 45.2 µM; in data set [2] it was 6.62 to 21.1 µM. Also, the inhibition entry in the data set with RAW264.7 [3] is “Dose-dependent effect”. Moreover, the viability at 24 h, up to 10 µM in data set [4] was greater than 85%.
In the same order, the values of `Cc1ccc(NC(=O)/C=C/c2ccc(O)c3oc(-c4ccc(O)c(O)c4)cc23)cc1` are 51.3 µM, 6.62 to 21.1 µM, “Dose-dependent effect” and greater than 85%.
For the compound `O=C(/C=C/c1ccc(O)c2oc(-c3ccc(O)c(O)c3)cc12)N1CCCCC1`, the results for the IC50 in data set [1] and in data set [2] were 21.2 µM and 6.62 to 21.1 µM, respectively. In the data set on RAW264.7 [3], the inhibition entry was “Dose-dependent effect”. Also, in [4], the viability at 24 h, up to 10 µM was greater than 85%.
Consider `O=C(/C=C/c1ccc(O)c2oc(-c3ccc(O)c(O)c3)cc12)Nc1ccccc1`, for which the values for the IC50 in data set [1] and in data set [2] were 17.8 µM and 6.62 to 21.1 µM, respectively. Also, the inhibition entry in the data set with RAW264.7 [5] is “inactive”. In addition, in data set [4], the viability at 24 h, up to 10 µM is greater than 85%.
Regarding `O=C(CCc1ccc(O)c2oc(-c3ccc(O)c(O)c3)cc12)Nc1ccc(O)cc1`, the figures for the IC50 in data set [1] and in [2] were 38.6 µM and 6.62 to 21.1 µM, respectively. The inhibition result in the data set on RAW264.7 [5] is “inactive”. In [4], the viability at 24 h, up to 10 µM is greater than 85%.
As for `CCCOC(=O)/C=C/c1ccc(O)c2oc(-c3ccc(O)c(O)c3)cc12`, the IC50 was 19.3 µM in data set [1] and 6.62 to 21.1 µM in data set [2]. In addition, the inhibition result with RAW264.7 [6] is “Active”. Besides, the viability at 24 h, up to 10 µM in data set [4] is greater than 85%.
As to `O=C(O)CCc1ccc(O)c2oc(-c3ccc(O)c(O)c3)cc12`, the IC50 in [1] was 9.76 µM; in [2], 6.62 to 21.1 µM. In addition, in the data set with RAW264.7 [5], the inhibition entry is “inactive”. Also, the viability at 24 h, up to 10 µM in [4] was greater than 85%.
For `CC(C)NC(=O)/C=C/c1ccc(O)c2oc(-c3ccc(O)c(O)c3)cc12`, the IC50 in [1] was 13.9 µM; in data set [2] it was 6.62 to 21.1 µM. For the same compound, in the data set on RAW264.7 [3], the inhibition entry was “Dose-dependent effect”. For the same compound, in data set [4], the viability at 24 h, up to 10 µM is greater than 85%.
For the compound `CNC(=O)CCc1ccc(O)c2oc(-c3ccc(O)c(O)c3)cc12`, the IC50 in data set [1] was 11.5 µM; in data set [2] it was 6.62 to 21.1 µM. Also, the inhibition entry with RAW264.7 [5] was “inactive”. Also, the viability at 24 h, up to 10 µM in data set [4] was greater than 85%.
Regarding `C=CCNC(=O)CCc1ccc(O)c2oc(-c3ccc(O)c(O)c3)cc12`, the IC50 in data set [1] was 46.8 µM; in data set [2], 6.62 to 21.1 µM. The viability at 24 h, up to 10 µM in data set [4] was greater than 85%.
Take `COc1ccc(NC(=O)/C=C/c2ccc(O)c3oc(-c4ccc(O)c(O)c4)cc23)cc1`: the results for the IC50 in [1] and in data set [2] were 42.2 µM and 6.62 to 21.1 µM, respectively. In addition, the inhibition result with RAW264.7 [3] is “Dose-dependent effect”. Moreover, in data set [4], the viability at 24 h, up to 10 µM is greater than 85%.
In the same order, the values of `CCOC(=O)/C=C/c1ccc(O)c2oc(-c3ccc(O)c(O)c3)cc12` are 15.5 µM, 6.62 to 21.1 µM, “Dose-dependent effect” and greater than 85%.
In the same order, the values of `O=C(/C=C/c1ccc(O)c2oc(-c3ccc(O)c(O)c3)cc12)Nc1ccc(Br)cc1` are greater than 100 µM, 6.62 to 21.1 µM, “Dose-dependent effect” and greater than 85%.
Consider `O=C(/C=C/c1ccc(O)c2oc(-c3ccc(O)c(O)c3)cc12)NCc1ccccc1`, for which the IC50 is 15.6 µM in data set [1] and 6.62 to 21.1 µM in data set [2]. For the same compound, the inhibition entry in the data set on RAW264.7 [6] is “Active”. Besides, the viability at 24 h, up to 10 µM in data set [4] is greater than 85%.
In the case of `O=C(/C=C/c1ccc(O)c2oc(-c3ccc(O)c(O)c3)cc12)Nc1ccc(F)cc1`, the IC50 in data set [1] is 83.8 µM; in [2], 6.62 to 21.1 µM. Besides, the inhibition entry with RAW264.7 [3] is “Dose-dependent effect”. Further, the viability at 24 h, up to 10 µM in data set [4] is greater than 85%.
Take `CC(C)OC(=O)/C=C/c1ccc(O)c2oc(-c3ccc(O)c(O)c3)cc12`: the figures for the IC50 in [1] and in [2] were 24.2 µM and 6.62 to 21.1 µM, respectively. For the same compound, the inhibition entry in the data set with RAW264.7 [5] was “inactive”. The viability at 24 h, up to 10 µM in data set [4] is greater than 85%.
In the same order, the values of `C=CCNC(=O)/C=C/c1ccc(O)c2oc(-c3ccc(O)c(O)c3)cc12` are 18.2 µM, 6.62 to 21.1 µM, “inactive” and greater than 85%.
As to `COC(=O)/C=C/c1ccc(O)c2oc(-c3ccc(O)c(O)c3)cc12`, the IC50 in data set [1] was 6.55 µM; in [2] it was 6.62 to 21.1 µM. In the data set with RAW264.7 [3], the inhibition result is “Dose-dependent effect”. Besides, the viability at 24 h, up to 10 µM in data set [4] was greater than 85%.
Regarding `Oc1ncnc2[nH]ncc12`, the outcome in the data set with Mus musculus [7] was Active.
Turning to `O=C(/C=C/c1ccc(O)c2oc(-c3ccc(O)c(O)c3)cc12)Nc1ccc(O)cc1`, the results for the IC50 in data set [1] and in data set [2] were 11 µM and 6.62 to 21.1 µM, respectively. In addition, the inhibition entry in the data set on RAW264.7 [5] is “inactive”. Also, in data set [4], the viability at 24 h, 10 µM is greater than 85%.
For the compound `O=C(/C=C/c1ccc(O)c2oc(-c3ccc(O)c(O)c3)cc12)O[C@H](Cc1ccc(O)c(O)c1)C(=O)O`, in the data set with Mus musculus [8], the Activity result was “Dose-dependent effect”. In data set [4], the viability at 24 h, up to 10 µM was greater than 85%.
As for `O=C(/C=C/c1ccc(O)c2oc(-c3ccc(O)c(O)c3)cc12)N1CCOCC1`, the results for the IC50 in data set [1] and in data set [2] were greater than 100 µM and 6.62 to 21.1 µM, respectively. In addition, the inhibition entry in the data set on RAW264.7 [5] is “inactive”. In data set [4], the viability at 24 h, up to 10 µM was greater than 85%.
Turning to `CCNC(=O)/C=C/c1ccc(O)c2oc(-c3ccc(O)c(O)c3)cc12`, the figures for the IC50 in data set [1] and in data set [2] were 13.5 µM and 6.62 to 21.1 µM, respectively. In addition, in the data set on RAW264.7 [5], the inhibition result was “inactive”. In addition, in [4], the viability at 24 h, 10 µM is greater than 85%.
For the compound `O=C(/C=C/c1ccc(O)c2oc(-c3ccc(O)c(O)c3)cc12)Nc1ccc(Cl)cc1`, the IC50 in [1] was greater than 100 µM; in data set [2], 6.62 to 21.1 µM. Moreover, in the data set with RAW264.7 [3], the inhibition result is “Dose-dependent effect”. In data set [4], the viability at 24 h, up to 10 µM is greater than 85%.
In data set [1], `O=C(O)/C=C/c1ccc(O)c2oc(-c3ccc(O)c(O)c3)cc12` [TOURNEFOLIC ACID A] registered an IC50 of 16.1 µM. Also, the inhibition result in the data set on RAW264.7 [3] was “Dose-dependent effect”. In addition, the viability at 24 h, up to 10 µM in data set [4] is greater than 85%.
What is called Ki is the dissociation constant of the complex between target and ligand, obtained from inhibition or displacement. Higher therefore signals weaker binding. For the compound `CNC(=O)/C=C/c1ccc(O)c2oc(-c3ccc(O)c(O)c3)cc12`, the IC50 in data set [1] was 4.45 µM; in data set [2] it was 6.62 to 21.1 µM. Moreover, the inhibition result in the data set with RAW264.7 [3] was “Dose-dependent effect”. The inhibitory constant (Ki) in data set [9] was found to be 3.52 µM; in data set [10], 13.1 µM. In the data set with Mus musculus [8], the Activity entry was “Dose-dependent effect”. In addition, the viability at 24 h, up to 10 µM in [4] was greater than 85%.
As to `O=C(CCc1ccc(O)c2oc(-c3ccc(O)c(O)c3)cc12)N1CCOCC1`, the IC50 was greater than 100 µM in data set [1] and 6.62 to 21.1 µM in data set [2]. Besides, the inhibition entry in the data set with RAW264.7 [5] is “inactive”. The viability at 24 h, up to 10 µM in [4] was greater than 85%.
